Read-outs that look alike come from different tables or passages of the source.
Assays:
[1] = system: lymph node cells (LNC) reactive to MBP (87-99); experiment: Antigen-specific lymph node cell proliferation assay; type: cell-based, Lewis rat; details: 10 μM peptide, 3 days, [3H]-thymidine; FIG. 4
Procedure: FIG. 4 is a graph displaying the proliferative response of MBP-reactive lymph node cells to position 91-substituted analogues. Two different substitutions were tested. The proliferative response of lymph node cells to 10 μM of MBP (87-99), motilin, A91 or K91 was determined. Proliferation is shown as counts per minute. BKG, no peptide added; 87-99, MBP (87-99); motilin, an unrelated peptide; A91, peptide analogue with alanine at position 91; K91, peptide analogue with D-lysine at position 91.
As an alternative to the use of T cell lines as described above, draining lymph node cells from Lewis rats immunized with MBP (87-99) may be used. […] Cultures are harvested on fiberglass filters and counted in a scintillation counter. Mean CPM and the standard error of the mean are calculated from data determined in triplicate cultures. […]
For the assay, 100 μl of the lymph node suspension was added to 96-well flat-bottom wells in the presence of an equal volume of medium containing 10 μM of various peptides (including: motilin as a negative control; MBP87-99; medium only, or alanine or D-amino acid substituted at position 91). […] The plates were then harvested with a Matrix filtermate harvester (Packard) and counted using an Automatic Direct Beta Counter (Packard). Mean cpm and the standard error of the mean were calculated from triplicate wells.

[2] = system: anti MBP (87-99) T cell line L87-99; type: cell-based, rat; details: all concentrations, 10^-4 μM to 10^-2 μM analogue; APC prepulsed with 0.2 μM native peptide; FIG. 5
Procedure: FIG. 5 is a graph illustrating the ability of alanine-substituted analogues to antagonize T cells. […] Results are shown as stimulation index ±SE.
The second or alternative assay is a competition assay for T cell proliferation. In this assay, antigen presenting spleen cells are first irradiated and then incubated with native MBP (87-99) peptide for 2-4 hours. These cells are then washed and further cultured with T cells reactive to MBP (87-99). Various concentrations of candidate peptide analogues are included in cultures for an additional 3 days. Following this incubation period, each culture is pulsed with 1 μCi of [^3H]-thymidine for an additional 12-18 hours. Cultures are then harvested on fiberglass filters and counted as above. Mean CPM and standard error of the mean are calculated from data determined in triplicate cultures. Peptide analogues which inhibit proliferation to approximately 25% at a concentration of 50 μM or greater are suitable for further screening.
T cell antagonism was detected in a prepulsed proliferation assay as described by De Magistris et al. (Cell […]:625, 1992) with minor modifications. […] The cultures were then harvested on fiberglass filters and the proliferative response expressed as CPM±SD or as stimulation index (mean CPM from test cultures divided by mean CPM from control cultures).

[3] = system: EAE; experiment: Reversal of EAE induced by adoptive transfer of L87-99 T cells; type: in vivo, rat
[4] = system: EAE; details: rat, in vivo
Procedure: In addition, as a safety measure, but not essential to this invention, suitable peptide analogues may be tested for direct induction of EAE. As described in detail in Example 2, various amounts of peptide analogues are injected at the base of the tail of rats, and the rats examined daily for signs of EAE. A peptide analogue which is not considered to cause EAE has a mean cumulative score of less than or equal to 1 over seven days when 1 mg (5 mg/kg) in complete Freund's adjuvant is injected.
MBP peptides and analogues were dissolved in phosphate-buffered saline (PBS) and emulsified with an equal volume of incomplete Freund's adjuvant supplemented with 4 mg/ml heat-killed Mycobacterium tuberculosis H37Ra in oil (Difco Laboratories, Inc., Detroit, Mich.). Rats were immunized subcutaneously in the hind foot pads with 0.1 ml of the emulsion and were monitored for clinical signs daily by an observer blind to the treatment protocol. For intravenous injections MBP peptides and analogues were dissolved in normal saline. EAE was scored as follows: 0, clinically normal; 1, flaccid tail; 2, hind limb paralysis; 3, front and hind limb paralysis.
The ability of peptide analogues to cause EAE is assessed in vivo. Rats were injected with MBP (87-99) or (91K>A) peptide analogue as described in Example 2. Animals were monitored daily for evidence of EAE. Rats receiving MBP (87-99) had 100% incidence (18/18 rats) of EAE with a mean maximum clinical score of 2.4±0.2. In contrast, 0/12 rats receiving the peptide analogue (91k>A) had EAE.

[5] = system: EAE; experiment: Prevention of EAE by co-injection of the peptide analogue with an EAE-inducing peptide; type: in vivo, rat
[6] = system: TNF-α production from draining lymph node cells; experiment: TNF-α production by draining lymph node cells (ELISA); type: cell-based, rat; details: all doses greater than 20 μM; supernatant after 24 hours; FIG. 7
Procedure: (§1) FIG. 7 are a pair of graphs showing the amount of IFN-γ and TNF-α production from draining lymph node cells (DLNC). DLNC were stimulated with MBP (87-99) alone (●) or with the peptide analogue (91K>A) (▪).
(§2) Cytokine production in draining lymph node cells from rats injected with MBP (87-99) alone or with the peptide analogue (91K>A) was determined. IFN-γ and TNF-α production were measured.
(§3) Draining lymph node cells (10^7 cells/ml) were stimulated in vitro with different concentrations of MBP (87-99) or peptide analogue. Supernatants were collected after 24 and 48 hours. IFN-γ was determined after 48 hours by use of a rat IFN-γ ELISA kit (GIBCO BRL). TNF-α was measured after 24 hours by ELISA kit (Genzyme Corp., Cambridge, Mass.).

[7] = system: IFN-γ production from draining lymph node cells; experiment: IFN-γ production by draining lymph node cells (ELISA); type: cell-based, rat; details: all doses; supernatant after 48 hours; FIG. 7
Procedure: as §1, §2, §3

[8] = as Peptide 2, co-injected with Peptide 1 MBP(68-88), ratio 1:1
[9] = as Peptide 2, co-injected with Peptide 1 MBP(87-99), ratio 1:1, in complete Freund's adjuvant

Structure (SMILES): CC[C@H](C)[C@H](NC(=O)[C@H](CC(N)=O)NC(=O)[C@H](C)NC(=O)[C@H](Cc1ccccc1)NC(=O)[C@H](Cc1ccccc1)NC(=O)[C@H](Cc1c[nH]cn1)NC(=O)[C@@H](N)C(C)C)C(=O)N[C@H](C(=O)N[C@H](C(=O)N1CCC[C@H]1C(=O)N[C@@H](CCCNC(=N)N)C(=O)N[C@H](C(=O)N1CCC[C@H]1C(=O)O)[C@@H](C)O)[C@@H](C)O)C(C)C [91K>A]
- proliferative response of MBP (87-99)-reactive lymph node cells (in words) [1]: failed to respond as well
- antagonism of the response of L87-99 to native peptide (in words) [2]: effectively antagonize
- time to complete remission ([3]; after single injection (2 mg/ml) of soluble analogue): ≤ 36 h
- rats going into complete remission without further signs of paralysis ([3]; single injection (2 mg/ml) of soluble analogue to rats with hind limb paralysis, 5 days after 10^7 L87-99 T cells, p<0.015): six out of six
- EAE Incidence [4]: 0/12
- EAE Mean Maximum Clinical Score [4]: 0
- incidence of EAE (rats with EAE / rats injected) [4]: 0/12
- EAE Incidence [5, 8]: 6/6
- EAE Mean Maximum Clinical Score [5, 8]: 3 ± 0
- EAE Incidence [5, 9]: 0/12
- EAE Mean Maximum Clinical Score [5, 9]: 0
- inhibition of induction of EAE by MBP (68-88) (in words) ([5]; co-immunization): not inhibit induction of EAE
- inhibition of induction of EAE by MBP (87-99) (in words) ([5]; co-immunization): could specifically inhibit induction of EAE
- TNF-α production (in words) [6]: marked decrease in cytokine production
- IFN-γ production (in words) [7]: marked decrease in cytokine production

Source: patent US6489299B2, “Methods for treatment of multiple sclerosis using peptide analogues at position 91 of human myelin basic protein” (Stanford University Medical Center, priority 1994, dated 2002)
